The target in the assay is T1, Angiotensin-converting enzyme (Oryctolagus cuniculus, UniProt P12822).
T1 sequence (P12822 whole entry): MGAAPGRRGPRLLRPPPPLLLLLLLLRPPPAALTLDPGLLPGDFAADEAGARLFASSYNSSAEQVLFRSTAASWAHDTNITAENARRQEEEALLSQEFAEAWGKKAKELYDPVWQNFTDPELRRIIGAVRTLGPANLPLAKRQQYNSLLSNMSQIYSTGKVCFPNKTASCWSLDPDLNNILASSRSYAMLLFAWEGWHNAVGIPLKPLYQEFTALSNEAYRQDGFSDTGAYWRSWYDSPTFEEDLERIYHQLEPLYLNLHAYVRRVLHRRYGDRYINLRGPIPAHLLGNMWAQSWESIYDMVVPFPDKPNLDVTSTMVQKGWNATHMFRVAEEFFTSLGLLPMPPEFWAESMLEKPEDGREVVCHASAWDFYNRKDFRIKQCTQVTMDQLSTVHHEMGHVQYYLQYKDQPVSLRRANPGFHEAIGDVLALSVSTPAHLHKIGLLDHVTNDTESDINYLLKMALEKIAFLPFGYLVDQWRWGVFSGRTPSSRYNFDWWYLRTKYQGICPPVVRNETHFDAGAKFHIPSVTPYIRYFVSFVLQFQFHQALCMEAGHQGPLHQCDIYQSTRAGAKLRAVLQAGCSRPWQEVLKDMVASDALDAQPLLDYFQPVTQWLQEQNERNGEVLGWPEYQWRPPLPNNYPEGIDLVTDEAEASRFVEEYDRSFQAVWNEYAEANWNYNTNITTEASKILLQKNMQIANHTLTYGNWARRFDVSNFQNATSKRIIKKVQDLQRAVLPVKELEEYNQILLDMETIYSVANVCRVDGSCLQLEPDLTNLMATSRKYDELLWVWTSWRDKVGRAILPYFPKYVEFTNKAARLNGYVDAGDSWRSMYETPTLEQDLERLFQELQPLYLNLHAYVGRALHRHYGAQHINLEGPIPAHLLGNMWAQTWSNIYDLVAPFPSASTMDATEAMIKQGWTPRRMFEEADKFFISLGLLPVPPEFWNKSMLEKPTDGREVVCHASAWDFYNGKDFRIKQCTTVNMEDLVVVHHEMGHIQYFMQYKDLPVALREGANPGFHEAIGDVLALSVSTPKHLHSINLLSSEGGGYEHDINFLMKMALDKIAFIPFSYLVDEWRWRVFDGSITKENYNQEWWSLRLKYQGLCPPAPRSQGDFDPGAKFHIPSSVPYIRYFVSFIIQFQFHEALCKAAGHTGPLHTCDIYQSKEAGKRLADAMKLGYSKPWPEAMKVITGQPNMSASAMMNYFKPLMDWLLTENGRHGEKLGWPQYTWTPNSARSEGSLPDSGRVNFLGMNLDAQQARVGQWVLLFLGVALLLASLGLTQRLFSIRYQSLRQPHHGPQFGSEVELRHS
Put plainly: Inhibition of rabbit lung ACE preincubated for 5 mins by spectrophotometric assay.

From ChEMBL document CHEMBL1806429, “Angiotensin-I-converting enzyme inhibitory peptides: Chemical feature based pharmacophore generation” (Eur J Med Chem, 2011) come the findings set out here.

Residues, ends and D or L forms follow the SMILES beside them.

Take `NCCCC[C@H](NC(=O)CNC(=O)[C@@H](N)Cc1ccccc1)C(=O)O` (H-Phe-Gly-Lys-OH): half-maximal inhibition (IC50) required 160 µM. To `N[C@@H](Cc1ccccc1)C(=O)N1CCC[C@H]1C(=O)O` (H-Phe-Pro-OH) belongs 210 µM; to `CC(C)C[C@H](NC(=O)[C@@H]1CCCN1C(=O)[C@@H]1CCCN1)C(=O)O` (H-Pro-Pro-Leu-OH), 427 µM. To `NC(N)=NCCC[C@H](N)C(=O)N[C@@H](CO)C(=O)N1CCC[C@H]1C(=O)O` (H-Arg-Ser-Pro-OH) belongs 248 µM; to `C[C@H](N)C(=O)N[C@@H](Cc1c[nH]cn1)C(=O)O` (H-Ala-His-OH), 9000 µM; to `C[C@H](NC(=O)[C@@H](N)CCCNC(=N)N)C(=O)N1CCC[C@H]1C(=O)O` (H-Arg-Ala-Pro-OH), 16 µM. The compound `CC[C@H](C)[C@H](N)C(=O)N[C@@H](Cc1ccc(O)cc1)C(=O)O` (H-Ile-Tyr-OH) gave an IC50 of 3.7 µM. To `CC(C)C[C@H](N)C(=O)N[C@@H](CC(N)=O)C(=O)N[C@@H](Cc1ccc(O)cc1)C(=O)O` (H-Leu-Asn-Tyr-OH) belongs 81 µM. Consider `CC(C)C[C@H](NC(=O)[C@@H]1CCCN1)C(=O)N[C@@H](Cc1c[nH]c2ccccc12)C(=O)O` (H-Pro-Leu-Trp-OH), for which the midpoint of inhibition, the IC50, lay at 36 µM.

As for `N[C@@H](Cc1ccc(O)cc1)C(=O)N1CCC[C@H]1C(=O)O` (H-Tyr-Pro-OH), the IC50 was found to be 720 µM.

Take `NCC(=O)N[C@@H](CCC(=O)O)C(=O)O` (H-Gly-Glu-OH): half-maximal inhibition (IC50) required 5400 µM.

In the case of `CC(C)C[C@H](N)C(=O)N[C@@H](CCCCN)C(=O)N1CCC[C@H]1C(=O)O` (H-Leu-Lys-Pro-OH), the IC50 is 0.32 µM. To `CC(C)[C@H](NC(=O)[C@@H](N)Cc1ccccc1)C(=O)N[C@@H](C)C(=O)N1CCC[C@H]1C(=O)O` (H-FVAP-OH) belongs 10 µM.

`O=C(N[C@@H](Cc1ccc(O)cc1)C(=O)N1CCC[C@H]1C(=O)O)[C@@H]1CCCN1` (H-Pro-Tyr-Pro-OH): the IC50 is 220 µM. To `CC(C)[C@H](N)C(=O)N[C@@H](C)C(=O)N1CCC[C@H]1C(=O)O` (H-Val-Ala-Pro-OH) belongs 2 µM; to `N[C@@H](Cc1ccccc1)C(=O)N1CCC[C@H]1C(=O)N1CCC[C@H]1C(=O)O` (H-Phe-Pro-Pro-OH), 78 µM.

Consider `O=C(NCC(=O)N1CCC[C@H]1C(=O)O)[C@@H]1CCCN1` (H-Pro-Gly-Pro-OH), for which the IC50 came to 97.3 µM. To `NCCCC[C@H](NC(=O)CN)C(=O)O` (H-Gly-Lys-OH) belongs 5400 µM.

Compound `CC[C@H](C)[C@H](N)C(=O)N1CCC[C@H]1C(=O)O` (H-Ile-Pro-OH) showed a half-maximal inhibitory concentration (IC50) of 150 µM. To `CC(C)[C@H](NC(=O)[C@H](C)N)C(=O)O` (H-Ala-Val-OH) belongs 300 µM; to `CC(C)[C@H](N)C(=O)N[C@@H](Cc1ccc(O)cc1)C(=O)O` (H-Val-Tyr-OH), 7 µM. In the case of `CC(C)C[C@H](N)C(=O)N[C@@H](C)C(=O)N1CCC[C@H]1C(=O)O` (H-Leu-Ala-Pro-OH) it was 0.7 µM; in that of `CC(C)[C@H](NC(=O)[C@H](C)N)C(=O)N1CCC[C@H]1C(=O)O` (H-Ala-Val-Pro-OH), 340 µM.

As to `C[C@H](N)C(=O)NCC(=O)O` (H-Ala-Gly-OH), the midpoint of inhibition, the IC50, lay at 2500 µM.
